Data as given in BindingDB's records for doi:10.1111/cbdd.12867 (Jishou University, 2017).

Biological target: Alpha-glucosidase MAL32 (Saccharomyces cerevisiae (strain ATCC 204508 / S288c), UniProt P38158)
Assay: In Vitro α-Glucosidase Inhibitory Assay
Settings: pH 6.8
Experimental: The test compounds were dissolved in DMSO to prepare the required distributing concentration. α-Glucosidase inhibitory activity was assayed using 0.1 m phosphate buffer (pH 6.8) at 37°C. The enzyme (0.1 U/ml) in phosphate-buffered saline was incubated with various concentrations of test compounds at 37°C for 15 min. Then, 1.25 mm p-nitrophenyl α-D-glucopyranoside was added to the mixture as a substrate.After further incubation at 37°C for 30 min, the absorbance was measured spectrophotometrically at 405 nm. The sample solution was replaced by DMSO as a control. Acarbose was used as a positive control. All experiments were carried out in triplicates.

Sequence of Alpha-glucosidase MAL32 (P38158 whole entry): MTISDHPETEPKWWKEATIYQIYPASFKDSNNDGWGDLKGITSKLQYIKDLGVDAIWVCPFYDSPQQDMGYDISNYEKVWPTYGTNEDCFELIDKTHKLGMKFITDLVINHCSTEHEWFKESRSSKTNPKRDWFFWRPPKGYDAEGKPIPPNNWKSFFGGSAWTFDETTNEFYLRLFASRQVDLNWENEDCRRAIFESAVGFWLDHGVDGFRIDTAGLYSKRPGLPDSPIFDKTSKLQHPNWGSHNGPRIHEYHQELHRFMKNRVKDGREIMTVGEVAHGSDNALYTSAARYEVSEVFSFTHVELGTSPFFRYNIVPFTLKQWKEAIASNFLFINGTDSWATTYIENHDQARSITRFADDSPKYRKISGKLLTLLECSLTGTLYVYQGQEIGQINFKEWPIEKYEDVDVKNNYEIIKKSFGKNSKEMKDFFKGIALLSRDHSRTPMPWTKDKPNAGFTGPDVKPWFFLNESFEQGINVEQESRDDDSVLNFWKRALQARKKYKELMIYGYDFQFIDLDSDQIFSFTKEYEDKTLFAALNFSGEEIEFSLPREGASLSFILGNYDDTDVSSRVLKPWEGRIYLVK

| SMILES | IC50 [µM] |
| --- | --- |
| O=C(COc1ccc2ccc(=O)oc2c1)N/N=C1\C(=O)Nc2ccccc21 [(Z)-2-((2-oxo-2H-chromen-7-yl)oxy)-N'-(2-oxoindolin-3-ylidene)acetohydrazide (5a)] | 187 |
| O=C(COc1ccc2ccc(=O)oc2c1)N/N=C1\C(=O)N(Cc2ccccc2F)c2ccccc21 [(Z)-N'-(1-(2-fluorobenzyl)-2-oxoindolin-3-ylidene)-2-((2-oxo-2H-chromen-7-yl)oxy)acetohydrazide (5j)] | 7.37 |
| CN1C(=O)/C(=N\NC(=O)COc2ccc3ccc(=O)oc3c2)c2ccccc21 [(Z)-N'-(1-methyl-2-oxoindolin-3-ylidene)-2-((2-oxo-2H-chromen-7-yl)oxy)acetohydrazide (5h)] | 269 |
| Cc1cc(C)c2c(c1)/C(=N/NC(=O)COc1ccc3ccc(=O)oc3c1)C(=O)N2 [(Z)-N'-(5,7-dimethyl-2-oxoindolin-3-ylidene)-2-((2-oxo-2H-chromen-7-yl)oxy)acetohydrazide (5c)] | 197 |
| O=C(COc1ccc2ccc(=O)oc2c1)N/N=C1\C(=O)Nc2ccc(Br)cc21 [(Z)-N'-(5-bromo-2-oxoindolin-3-ylidene)-2-((2-oxo-2H-chromen-7-yl)oxy)acetohydrazide (5f)] | 14.2 |
| O=C(COc1ccc2ccc(=O)oc2c1)N/N=C1\C(=O)N(Cc2ccccc2F)c2ccc(Cl)cc21 [(Z)-N'-(5-chloro-1-(2-fluorobenzyl)-2-oxoindolin-3-ylidene)-2-((2-oxo-2H-chromen-7-yl)oxy)acetohydrazide (5p)] | 2.56 |
| O=C(COc1ccc2ccc(=O)oc2c1)N/N=C1\C(=O)Nc2ccc(Cl)cc21 [(Z)-N'-(5-chloro-2-oxoindolin-3-ylidene)-2-((2-oxo-2H-chromen-7-yl)oxy)acetohydrazide (5e)] | 153 |
| O=C(COc1ccc2ccc(=O)oc2c1)N/N=C1\C(=O)Nc2ccc(F)cc21 [(Z)-N'-(5-fluoro-2-oxoindolin-3-ylidene)-2-((2-oxo-2H-chromen-7-yl)oxy)acetohydrazide (5d)] | 12 |
| Cc1ccc2c(c1)/C(=N/NC(=O)COc1ccc3ccc(=O)oc3c1)C(=O)N2 [(Z)-N'-(5-methyl-2-oxoindolin-3-ylidene)-2-((2-oxo-2H-chromen-7-yl)oxy)acetohydrazide (5b)] | 114 |
| O=C(COc1ccc2ccc(=O)oc2c1)N/N=C1\C(=O)Nc2ccc([N+](=O)[O-])cc21 [(Z)-N'-(5-nitro-2-oxoindolin-3-ylidene)-2-((2-oxo-2H-chromen-7-yl)oxy)acetohydrazide (5g)] | 9.47 |

Further lines, results first:

| IC50 [µM] | SMILES |
| --- | --- |
| 7.31 | O=C(COc1ccc2ccc(=O)oc2c1)N/N=C1\C(=O)N(Cc2ccccc2Cl)c2ccccc21 [(Z)-N'-(1-(2-chlorobenzyl)-2-oxoindolin-3-ylidene)-2-((2-oxo-2H-chromen-7-yl)oxy)acetohydrazide (5l)] |
| 66.8 | Cc1ccc2c(c1)/C(=N/NC(=O)COc1ccc3ccc(=O)oc3c1)C(=O)N2Cc1ccccc1F [(Z)-N'-(1-(2-fluorobenzyl)-5-methyl-2-oxoindolin-3-ylidene)-2-((2-oxo-2H-chromen-7-yl)oxy)acetohydrazide (5n)] |
| 9.33 | O=C(COc1ccc2ccc(=O)oc2c1)N/N=C1\C(=O)N(Cc2cccc(F)c2)c2ccccc21 [(Z)-N'-(1-(3-fluorobenzyl)-2-oxoindolin-3-ylidene)-2-((2-oxo-2H-chromen-7-yl)oxy)acetohydrazide (5k)] |
| 77.8 | Cc1ccc2c(c1)/C(=N/NC(=O)COc1ccc3ccc(=O)oc3c1)C(=O)N2Cc1cccc(F)c1 [(Z)-N'-(1-(3-fluorobenzyl)-5-methyl-2-oxoindolin-3-ylidene)-2-((2-oxo-2H-chromen-7-yl)oxy)acetohydrazide (5o)] |
| 4.07 | O=C(COc1ccc2ccc(=O)oc2c1)N/N=C1\C(=O)N(Cc2ccc(Br)cc2)c2ccccc21 [(Z)-N'-(1-(4-bromobenzyl)-2-oxoindolin-3-ylidene)-2-((2-oxo-2H-chromen-7-yl)oxy)acetohydrazide (5m)] |
| 14.1 | O=C(COc1ccc2ccc(=O)oc2c1)N/N=C1\C(=O)N(Cc2ccccc2)c2ccccc21 [(Z)-N'-(1-benzyl-2-oxoindolin-3-ylidene)-2-((2-oxo-2H-chromen-7-yl)oxy)acetohydrazide (5i)] |
| 4.48 | O=C(COc1ccc2ccc(=O)oc2c1)N/N=C1\C(=O)N(Cc2ccccc2)c2ccc(Br)cc21 [(Z)-N'-(1-benzyl-5-bromo-2-oxoindolin-3-ylidene)-2-((2-oxo-2H-chromen-7-yl)oxy)acetohydrazide (5r)] |
| 2.85 | O=C(COc1ccc2ccc(=O)oc2c1)N/N=C1\C(=O)N(Cc2ccccc2Cl)c2ccc(Br)cc21 [(Z)-N'-(5-bromo-1-(2-chlorobenzyl)-2-oxoindolin-3-ylidene)-2-((2-oxo-2H-chromen-7-yl)oxy)acetohydrazide (5s)] |
| 3.98 | O=C(COc1ccc2ccc(=O)oc2c1)N/N=C1\C(=O)N(Cc2ccc(Br)cc2)c2ccc(Br)cc21 [(Z)-N'-(5-bromo-1-(4-bromobenzyl)-2-oxoindolin-3-ylidene)-2-((2-oxo-2H-chromen-7-yl)oxy)acetohydrazide (5t)] |
| 2.88 | O=C(COc1ccc2ccc(=O)oc2c1)N/N=C1\C(=O)N(Cc2cccc(F)c2)c2ccc(Cl)cc21 [(Z)-N'-(5-chloro-1-(3-fluorobenzyl)-2-oxoindolin-3-ylidene)-2-((2-oxo-2H-chromen-7-yl)oxy)acetohydrazide (5q)] |
